Results reported in patent US20090176864A1, “Methods For Improving Hepatic and Immune Function In An Animal” (Hill's Pet Nutrition, Inc., priority 2004, published 2009).

Tests used:
Assay type in all cases: in vivo
lymphocyte proliferation [1] = assay: Pokeweed mitogen-activated lymphocyte proliferation; settings: cats
Procedure: (§1) The study involved three groups of cats: Group 1) cats on a dry control food, Group 2) cats on a dry food fortified with approximately 65 ppm of lipoic acid, and Group 3) cats on a dry food fortified with approximately 650 ppm of lipoic acid on a dry matter basis. All cats were fled control food for a two week baseline period at the end of which time immune function assays were performed. One group of cats was then switched to the 65 ppm test food, one group to the 650 ppm test food and one group remained on control and all were fed for another 6 weeks at which time the baseline tests were performed again.

lymphocyte proliferation [2] = assay: Lymphocyte proliferation activity in old cats (overall statement); settings: lipoic acid in food
Procedure: as §1

lymphocyte proliferation [3] = assay: Concanavalin A-activated lymphocyte proliferation; settings: cats; for Concanavalin A-activated lymphocyte proliferation compared to baseline: 6 weeks
Procedure: as §1

lymphocyte proliferation [4] = assay: Phytohaemagglutinin (PHA)-activated lymphocyte proliferation; settings: cats
Procedure: as §1

[5] = Bodyweight of cats fed lipoic acid fortified food
Procedure: as §1

[6] = 65 ppm lipoic acid in food, 6 weeks

Question: Which results are given for `O=C(O)CCCC[C@@H]1CCSS1` (racemic) [lipoic acid]?
Answer: Pokeweed mitogen-stimulated lymphocyte proliferation compared to baseline (lymphocyte proliferation [1]; [6]): significantly increased; Pokeweed Mitogen stimulation, difference between groups (lymphocyte proliferation [1]; control vs 65 ppm vs 650 ppm, ANOVA, beginning and end of study): different between groups (ANOVA P<0.05) at the beginning but not the end; lymphocyte proliferation activity (lymphocyte proliferation [2]): improved; Concanavalin A-activated lymphocyte proliferation compared to baseline (lymphocyte proliferation [3]; 65 ppm lipoic acid in food): significant increase; Concanavalin A-activated lymphocyte proliferation compared to baseline (lymphocyte proliferation [3]; 650 ppm lipoic acid in food): displayed an increase; Concanavalin A stimulation, difference between the groups (lymphocyte proliferation [3]; control vs 65 ppm vs 650 ppm, beginning and end of study): no significant difference; PHA-stimulated lymphocyte proliferation between baseline and 6 weeks (lymphocyte proliferation [4]; [6]): significant increase; PHA stimulation, difference between groups (lymphocyte proliferation [4]; control vs 65 ppm vs 650 ppm, beginning or end): no significant difference; effects on bodyweight ([5]; 65 ppm lipoic acid in food for 6 weeks): no adverse effects; effects on bodyweight ([5]; 650 ppm lipoic acid in food for 6 weeks): no adverse effects
